Experiments:
[1] = test system: H1N1pdm09 virus (A/Netherlands/602/2009)
H1 ectodomain = settings: pH 7.5

Compound	Infection inhibition in single-concentration screen [1]	Competition with fluorescein-labelled S5 for binding to H1 protein (H1 ectodomain)	IC50 ([1]; 1 h) [nM]
H-CYYFTHSIFNNLIVFHBG-NH2 (sidechain bridge or staple) [M8]	minimal to no activity	showed competition	
CC[C@H](C)[C@@H]1NC(=O)[C@H](CS)NC(=O)[C@H](CO)NC(=O)[C@H](CCCNC(=N)N)NC(=O)[C@H](CCCNC(=N)N)NC(=O)[C@H](Cc2ccc(O)cc2)NC(=O)[C@H](CCC(N)=O)NC(=O)[C@H](Cc2ccccc2)NC(=O)[C@H](CC(N)=O)NC(=O)[C@H](CC(C)C)NC(=O)[C@@H]2CSC(=N2)c2cc(ccn2)C[C@@H](C(=O)NCC(N)=O)NC(=O)[C@H](CC(N)=O)NC(=O)[C@H](CC(C)C)NC(=O)[C@H]([C@@H](C)CC)NC(=O)[C@H](CC(N)=O)NC(=O)[C@H](CC(C)C)NC1=O [M3]	clear infection inhibition	compete	120
H-CLNFQYRRSCILNILNBG-NH2 (disulfide) [M4]	did not show inhibition		
